Data on 15 molecules can be found in PMC5571359, “Screening the Medicines for Malaria Venture Pathogen Box across Multiple Pathogens Reclassifies Starting Points for Open-Source Drug Discovery” (Antimicrobial Agents and Chemotherapy, 2017).

Like-named read-outs stand apart in the source and are kept apart here. Where only a bound is given, the exact number is not on record here.

One data set deals with P. falciparum ABS. The conditions noted are these: ChEMBL Data, TCMDC set, P. falciparum; read-out: TCMDC (ref 93) EX50; cited from earlier work.
For data set [1], the system named is Plasmodium falciparum 3D7 asexual blood stage. Description: microbe, parasite or virus in culture.
The nature of data set [2]: HEK293 resazurin cell cytotoxicity assay. Conditions: human.
The subject of a further data set is HEK293 cells. Description: HEK293 resazurin cell cytotoxicity assay. The conditions noted are these: Homo sapiens. A general note: The colour change of resazurin is a common sign of viable cells or microbes.
For data set [3], the system named is T. b. brucei 427 bloodstream trypanosomes. Kind of data set: T. b. brucei resazurin viability assay. The data set is classed as cell-based, Trypanosoma brucei brucei. The conditions noted are these: for IC50: Trypanosoma brucei.
The test system of data set [4] is T. cruzi intracellular amastigotes. Description: Intracellular anti-Trypanosoma cruzi image-based assay (amastigotes). The data set is classed as cell-based.
The subject of data set [5] is NF54-pfs16-LUC-GFP stage IV gametocytes. Kind of data set: Plasmodium falciparum late stage gametocyte (LSG) image-based assay. It is filed as cell-based. Conditions: Plasmodium falciparum, NF54, read-out: Antiplasmodial IC50 (GAM / LSG), PBox compounds, stage IV gametocytes, single determination.
Data set [6] has as its system L. donovani MHOM/IN/80/DD8 intracellular amastigotes. Description: Leishmania donovani intracellular amastigote assay in THP-1 cells. The conditions noted are these: Leishmania donovani. It is filed as cell-based.
The subject of the next data set is T. brucei rhodesiense. The conditions noted are these: ref Pbox supporting information; read-out: T .b. rohdensie Pbox IC50; cited from earlier work.
A further data set relates to HepG2. Conditions: ref PBox supporting information, cited from earlier work.
The subject of another data set is infected PMM. Also noted: method as in Pbox supporting information. Conditions: ref Pbox supporting information, read-out: Toxicity on infected PMM Pbox IC50; cited from earlier work.
Data set [7] relates to L. donovani axenic amastigotes. Further details: method as in PBox supporting information. The conditions noted are these: ref PBox supporting information; cited from earlier work.
The subject of data set [8] is T. cruzi C4 β-galactosidase reporter parasite in MRC 5SV2 host cells. The conditions noted are these: cited from earlier work.
Data set [9] relates to L. donovani (macrophages). Also noted: method as in Pbox supporting information. The conditions noted are these: ref Pbox supporting information; cited from earlier work.
The test system of data set [10] is L. infanium (macrophages). Also noted: method as in Pbox supporting information. The conditions noted are these: ref Pbox supporting information; cited from earlier work.
A further data set has as its system T. brucei brucei. The conditions noted are these: ref Pbox supporting information; read-out: T.b. brucei Pbox IC50; cited from earlier work.
For a further data set, the system named is L. major. Further details: method as in Pbox supporting information. The conditions noted are these: ref Pbox supporting information; cited from earlier work.
Setting [11] is: 3D7, read-out: Antiplasmodial IC50 (ABS), PBox compounds, P. falciparum 3D7.
The mark [12] stands for this setting: HEK293, read-out: HEK % Inhibition 20uM/IC50 Discovery Biology.
Where [13] appears, read: read-out: IC50 T. brucei brucei (Discovery Biology).
[14] abbreviates: Trypanosoma cruzi, 48 h, read-out: IC50 T. cruzi (Discovery Biology).
Setting [15] is: ref Pbox supporting information, read-out: T. cruzi Pbox IC50.
Where [16] appears, read: read-out: T b.brucei Discovery Biology IC50.
The mark [17] stands for this setting: Trypanosoma cruzi, intracellular amastigotes, read-out: T cruzi Discovery Biology IC50.

As usually defined, the Emax is the maximal effect, on the per cent scale that the assay sets. As usually defined, the CC50 is the concentration giving 50% cytotoxicity.

On to `c1ccc(-c2nc(NC3CCCCC3)cc(C3CC3)n2)nc1` [MMV021013], for which, in the data set on P. falciparum ABS, the EC50 is 0.73 µM. Besides, the IC50 was determined as 0.46 µM in data set [1] (setting [11]); 3.51 µM in [3] (setting [13]); 1.67 µM in data set [4] (setting [14]); 0.19 µM in data set [5]; 1.48 µM in [6] (THP-1, read-out: IC50 L. donovani (Discovery Biology), PBox compounds, intracellular amastigotes). Further, the selectivity ratio at 72 h in data set [2] is over 5. The inhibition at 20 µM in the data set on HEK293 cells (setting [12]) is 83%.

Regarding `Cc1nc(-c2ccccn2)nc(N(C)CCc2ccccc2)c1Cl` [MMV658988], the IC50 is 11.8 µM in the data set with T. brucei rhodesiense; 2.18 µM in data set [1] (setting [11]); over 20 µM with HEK293 cells (setting [12]); 16.7 µM with infected PMM; 0.02 µM in [7]; under 1 µM in data set [8] (7 days exposure, ref PBox supporting information, read-out: T. cruzi IC50 in the PBox supporting information file). For the same molecule, the IC50 was 0.88 µM in data set [8] (setting [15]); 2.6 µM in [9]; 0.3 µM in data set [5]; 4.06 µM in [10]; 14.9 µM in the data set with T. brucei brucei. Moreover, in the data set on HepG2, the “HepG2 PBox CC20” value was 11.3 µM. Also, in data set [4] (8 μM), the “activity against T. cruzi at 8 μM in the Discovery Biology assay” value is “no activity”.

Regarding `Cc1nc(-c2ccccn2)nc(N2CCC(Cc3ccccc3)C2)c1Cl` (stereo not drawn) [MMV659004], the IC50 in the data set on T. brucei rhodesiense is 5.62 µM; in data set [1] (setting [11]), 1.86 µM; in the data set with HEK293 cells (setting [12]) it was over 20 µM; in the data set with infected PMM, 16.7 µM; in the data set with L. major, 8.96 µM; in [7], 0.03 µM. Further, the IC50 was 0.97 µM in data set [8] (setting [15]); 4.2 µM in [9]; 0.67 µM in data set [5]; 4.03 µM in data set [10]; 6.61 µM in the data set on T. brucei brucei. The “HepG2 PBox CC20” value with HepG2 is 10.2 µM.

On to `FC(F)(F)c1cc(NCCc2ccccc2)nc(-c2ccccn2)n1` [MMV659010], for which the IC50 with T. brucei rhodesiense is 27.2 µM; in [1] (setting [11]), over 8 µM; in the data set with HEK293 cells (setting [12]) it was over 20 µM; in the data set on infected PMM, 30 µM; in data set [7], 0.25 µM; in [8] (setting [15]) it was 4.25 µM. Besides, the IC50 was 5.17 µM in data set [9], 1.71 µM in data set [5], 16.2 µM in [10] and over 32 µM with T. brucei brucei. Besides, the “HepG2 PBox CC20” value with HepG2 was over 80 µM.

On to `COc1ccc(C(=N)N)cc1-c1cn(-c2ccc(C(=N)N)cc2)nn1` [MMV675998], for which the IC50 is under 0.13 µM in the data set on T. brucei rhodesiense; over 20 µM in the data set with HEK293 cells (setting [12]); 30 µM in the data set on infected PMM; 0.27 µM in data set [3] (setting [16]); 14.3 µM in data set [7]; 21.5 µM in data set [8] (setting [15]). Further, the IC50 in data set [9] is over 30 µM; in data set [10] it was over 32 µM; in the data set with T. brucei brucei it was 0.25 µM. Besides, in the data set on HepG2, the “HepG2 PBox CC20” value was 5.5 µM.

As to `Clc1ccc(Cl)c(CO[C@H]2CCCC[C@@H]2n2ccnc2)c1` [MMV676048], the IC50 was 22.9 µM with T. brucei rhodesiense; over 20 µM in the data set on HEK293 cells (setting [12]); 30 µM in the data set on infected PMM; 3.21 µM in data set [4] (setting [17]); 15.6 µM in data set [7]; 1.36 µM in [8] (setting [15]). The IC50 in [9] was 12.8 µM; in [10], 16.2 µM; in the data set with T. brucei brucei, over 32 µM. Also, the “HepG2 PBox CC20” value in the data set with HepG2 was 37.1 µM. Further, the Emax in [4] (Trypanosoma cruzi, PBox kinetoplastid set compounds active against T. cruzi alone, read-out: Emax against T. cruzi (subefficacious effect)) is under 100%.

On to `CC(C)(C)OC(=O)N1CCN(c2cc(-c3ccc(Oc4ccccc4)cc3)n[nH]2)CC1` [MMV676057], for which the IC50 with T. brucei rhodesiense is 2.7 µM; with infected PMM it was 20 µM; with L. major, 13 µM; in data set [7] it was 1.32 µM; in data set [8] (setting [15]), 9.37 µM; in [9] it was over 10 µM. Also, the IC50 in [10] is 10.2 µM; in the data set with T. brucei brucei, 3.89 µM. The “HepG2 PBox CC20” value in the data set with HepG2 is 4.0 µM.

Consider `c1ccc(Oc2ccc(-c3cc(CN4CCOCC4)[nH]n3)cc2)cc1` [MMV676161], for which the IC50 was 5.26 µM in the data set on T. brucei rhodesiense; 30 µM in the data set with infected PMM; 9.7 µM in [7]; 16 µM in data set [8] (setting [15]); 26.1 µM in data set [9]; over 32 µM in data set [10]. In addition, in the data set with T. brucei brucei, the IC50 was 15.1 µM. For the same molecule, in the data set on HepG2, the “HepG2 PBox CC20” value was 28.9 µM.

As to `O=C(Nc1ccccc1-c1nc2c(C(=O)O)cccc2o1)c1ccccc1` [MMV676162], the IC50 in the data set on T. brucei rhodesiense was over 32 µM; in the data set with infected PMM, over 30 µM; in data set [7], 0.4 µM; in [8] (setting [15]), over 32 µM; in data set [9] it was over 30 µM; in data set [10], over 32 µM. Further, in the data set on T. brucei brucei, the IC50 was over 32 µM. In the data set on HepG2, the “HepG2 PBox CC20” value was over 80 µM.

`COC(=O)c1cccc2oc(-c3cccc(OC)c3NC(=O)c3cc(-c4ccccc4)on3)nc12` [MMV676186]: the IC50 in the data set on T. brucei rhodesiense was over 32 µM; in the data set with infected PMM it was over 30 µM; in [7], 3.95 µM; in [8] (setting [15]), over 32 µM; in [9], over 30 µM; in [10], over 32 µM. Besides, the IC50 with T. brucei brucei was over 32 µM. Moreover, in the data set on HepG2, the “HepG2 PBox CC20” value was over 80 µM.

Turning to `Cc1ncc(-c2ccnc(Nc3ccc(S(C)(=O)=O)cc3)n2)n1C(C)C` [MMV676604], the IC50 in the data set with T. brucei rhodesiense is under 0.13 µM; in [1] (3D7, read-out: Pf 3D7 Discovery Biology IC50, P. falciparum 3D7 asexual blood stage), 3.23 µM; in the data set on HEK293 cells (HEK293, read-out: HEK % Discovery Biology IC50), 2.7 µM; with L. major, 3.15 µM; in [3] (setting [16]), 0.14 µM; in data set [4] (setting [17]), 1.18 µM. Besides, the IC50 in data set [8] (setting [15]) was 1.08 µM; in [10], 1.15 µM; in data set [6] (THP-1, intracellular amastigotes, some values marked *, read-out: L, donovani Discovery Biology IC50), 4.82 µM; with T. brucei brucei, 0.26 µM. Further, the “HepG2 PBox CC20” value with HepG2 was 0.179 µM.

With `Nc1nc2ccc(-c3cncc(Oc4ccc(F)cc4)c3)cc2[nH]1` [MMV687248], the CC50 in the data set on HepG2 (read-out: HepG2 PBox CC50 µM, HepG2 cytotoxicity) is 31.5 µM. Also, the IC50 in data set [1] (3D7, read-out: Pf 3D7 Discovery Biology IC50 µM, P. falciparum 3D7 asexual blood stage, Discovery Biology) worked out at 1.52 µM; in data set [3] (setting [13]) it was 1.05 µM; in data set [4] (setting [14]), 4 µM. The selectivity ratio at 72 h in data set [2] was over 5. In addition, the “selectivity index (SI) T. brucei brucei versus HEK293” value in data set [3] (HEK293) was over 20. Moreover, the “selectivity index (SI) T. brucei brucei versus HEPG2” value in [3] (HEPG2 (PBox data)) is over 20.

Turning to `Nc1ccc2ncnc(Nc3ccc(OCc4cccc(F)c4)c(Cl)c3)c2c1` [MMV688273], the IC50 in the data set with T. brucei rhodesiense was 13.1 µM; with L. major, 10.4 µM; in data set [8] (setting [15]) it was 4.03 µM; in data set [10] it was over 32 µM; with T. brucei brucei, over 32 µM. Also, in the data set with HepG2, the “HepG2 PBox CC20” value was 9.7 µM.

Take `O=C(CN1CCOCC1)Nc1ccc2ncnc(Nc3ccc(OCc4cccc(F)c4)c(Cl)c3)c2c1` [MMV688274]: the IC50 in the data set on T. brucei rhodesiense was 3.07 µM; with L. major, 12.4 µM; in data set [8] (setting [15]), 0.95 µM; in [10], over 32 µM; in the data set on T. brucei brucei, 5.31 µM. For the same molecule, in the data set on HepG2, the “HepG2 PBox CC20” value was 10.9 µM.

Turning to `CN1CCN(S(=O)(=O)c2ccc(-c3ccc4c(Nc5ncc(Cl)cn5)ccnc4c3)cc2)CC1` [MMV688283], the IC50 with T. brucei rhodesiense was 0.96 µM; in [1] (setting [11]), 0.66 µM; with HEK293 cells (setting [12]) it was over 20 µM; with L. major, 8.51 µM; in [3] (setting [16]) it was 5.29 µM; in data set [8] (setting [15]) it was 3.81 µM. Also, the IC50 in [5] is 4.1 µM; in data set [10] it was 2.54 µM; in the data set with T. brucei brucei it was 3.78 µM. Moreover, in the data set with HepG2, the “HepG2 PBox CC20” value is 8.0 µM.
